Results as given in US20120321565A1, “PHARMACEUTICAL COMPOSITIONS COMPRISING 17ALPHA-FURANYLESTERS OF 17BETA-CARBOTHIATE ANDROSTANES WITH A MUSCARINIC RECEPTOR ANTAGONIST” (GlaxoSmithKline Intellectual Property Management Limited, priority 2002, published 2012).

Assays:
[1] = Pharmacokinetics after intravenous administration in the anaesthetised pig; assay type: in vivo; conditions: for clearance, compound (I) vs fluticasone propionate (in words): intravenous 0.1 mg/kg; for pharmacokinetic parameters, compound (I) vs fluticasone propionate (in words): intravenous mixture of the two compounds at 0.1 mg/kg
Description: The clearance of these two glucocorticoids is similar is this experimental pig model.

[2] = test system: NFκB; assay: Transrepression (NFκB): firefly luciferase NFκB reporter in TNFα-stimulated A549 cells; assay type: cell-based; conditions: Homo sapiens, TNFα 0.5 ng/ml, read-out: Transrepression (NFκB) ED50
Description: The glucocorticoid receptor (GR) can function in at least two distinct mechanisms, by upregulating gene expression through the direct binding of GR to specific sequences in gene promotors, and by downregulating gene expression that is being driven by other transcription factors (such as NFκB or AP-1) through their direct interaction with GR.
The first cell line contains the firefly luciferase reporter gene under the control of a synthetic promoter that specifically responds to activation of the transcription factor NFκB when stimulated with TNFα. The second cell line contains the renilla luciferase reporter gene under the control of a synthetic promotor that comprises 3 copies of the consensus glucocorticoid response element, and which responds to direct stimulation by glucocorticoids. Simultaneous measurement of transactivation and transrepression was conducted by mixing the two cell lines in a 1:1 ratio in 96 well plate (40,000 cells per well) and growing overnight at 37° C. Test compounds were dissolved in DMSO, and added to the cells at a final DMSO concentration of 0.7%. After incubation for 1 h 0.5 ng/ml TNFα (R&D Systems) was added and after a further 15 hours at 37° C., the levels of firefly and renilla luciferase were measured using the Packard Firelite kit following the manufacturers' directions. Dose response curves were constructed from which EC50 values were determined.

[3] = molecular target: T1, glucocorticoid receptor (Homo sapiens, UniProt P04150); assay: In vitro functional glucocorticoid assays (metabolite vs parent); assay type: cell-based
T1 sequence (P04150 1-777): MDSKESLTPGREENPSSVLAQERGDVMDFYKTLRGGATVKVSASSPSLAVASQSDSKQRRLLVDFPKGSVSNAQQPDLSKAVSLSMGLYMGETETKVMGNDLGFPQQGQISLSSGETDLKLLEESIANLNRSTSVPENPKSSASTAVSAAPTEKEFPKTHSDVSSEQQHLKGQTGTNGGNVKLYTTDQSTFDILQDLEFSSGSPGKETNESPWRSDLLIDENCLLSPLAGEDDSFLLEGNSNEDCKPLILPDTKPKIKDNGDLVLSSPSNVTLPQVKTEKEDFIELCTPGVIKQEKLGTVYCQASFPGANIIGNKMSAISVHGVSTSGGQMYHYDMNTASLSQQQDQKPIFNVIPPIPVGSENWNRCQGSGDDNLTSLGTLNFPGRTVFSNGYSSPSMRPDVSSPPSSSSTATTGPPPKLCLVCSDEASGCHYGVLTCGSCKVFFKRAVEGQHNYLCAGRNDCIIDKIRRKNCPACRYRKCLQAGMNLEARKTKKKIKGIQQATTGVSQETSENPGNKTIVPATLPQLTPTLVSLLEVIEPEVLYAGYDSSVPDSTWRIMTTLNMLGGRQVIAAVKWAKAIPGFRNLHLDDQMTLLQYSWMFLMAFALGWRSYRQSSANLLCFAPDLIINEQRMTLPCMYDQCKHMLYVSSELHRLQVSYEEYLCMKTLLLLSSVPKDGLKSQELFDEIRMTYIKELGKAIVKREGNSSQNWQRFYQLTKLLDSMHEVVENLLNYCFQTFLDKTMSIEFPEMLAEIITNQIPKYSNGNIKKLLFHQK
Description: Compound (I) undergoes highly efficient hepatic metabolism to yield the 17-β carboxylic acid (X) as the sole major metabolite in rat and human in vitro systems.

clearance, compound (I) vs fluticasone propionate (in words) [1] | pharmacokinetic parameters, compound (I) vs fluticasone propionate (in words) [1] | SMILES | EC50 [2] [µM] | fold less active than the parent compound [3] [fold]
similar | the same | C[C@@H]1CC2C3C[C@H](F)C4=CC(=O)C=C[C@]4(C)[C@@]3(F)[C@@H](O)C[C@]2(C)[C@@]1(OC(=O)c1ccco1)C(=O)SCF (stereo partly drawn) [Compound of Formula (I), 6α, 9α-Difluoro-17α-[(2-furanylcarbonyl)oxy]-11β-hydroxy-16α-methyl-3-oxo-androsta-1,4-diene-17β-carbothioic acid S-fluoromethyl ester] | – | –
similar | the same | CCC(=O)O[C@]1(C(=O)SCF)[C@H](C)C[C@H]2[C@@H]3C[C@H](F)C4=CC(=O)C=C[C@]4(C)[C@@]3(F)[C@@H](O)C[C@@]21C [Fluticasone propionate, 6α, 9α-Difluoro-17α-(1-oxopropoxy)-11β-hydroxy-16α-methyl-3-oxo-androsta-1,4-diene-17β-carbothioic acid S-fluoromethyl ester, reference compound] | – | –
– | – | C[C@@H]1CC2C3C[C@H](F)C4=CC(=O)C=C[C@]4(C)[C@@]3(F)[C@@H](O)C[C@]2(C)[C@@]1(OC(=O)c1ccco1)C(=O)O (stereo partly drawn) [Metabolite (X)] | > 1 | > 1000
